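Five concentrations, 48 hours, 96-well plates. GI50 is the concentration that inhibits growth by half.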 The source made the active and inactive calls. Cut-off read from the data, not from the text of the source: active = GI50 up to about 1.1 µM and inactive = higher.
Key:
Assay in all cases: growth of human tumour cells (NCI), 48 h
A498 = system: A498
BT-549 = system: BT-549
DU-145 = system: DU-145
HCC 2998 = system: HCC 2998
HOP-62 = system: HOP-62
KM12 = system: KM12
LOX IMVI = system: LOX IMVI
MDA-MB-231 = system: MDA-MB-231
NCI-H23 = system: NCI-H23
NCI-H460 = system: NCI-H460
OVCAR-4 = system: OVCAR-4
SF-268 = system: SF-268
SF-539 = system: SF-539
SK-MEL-2 = system: SK-MEL-2
SK-MEL-5 = system: SK-MEL-5
SN12C = system: SN12C
SNB-75 = system: SNB-75
T47D = system: T47D
UACC-62 = system: UACC-62
UO-31 = system: UO-31

Structure (SMILES) | GI50 (A498) | GI50 (BT-549) | GI50 (DU-145) | GI50 (HCC 2998) | GI50 (HOP-62) | GI50 (KM12) | GI50 (LOX IMVI) | GI50 (MDA-MB-231) | GI50 (NCI-H23) | GI50 (NCI-H460) | GI50 (OVCAR-4) | GI50 (SF-268) | GI50 (SF-539) | GI50 (SK-MEL-2) | GI50 (SK-MEL-5) | GI50 (SN12C) | GI50 (SNB-75) | GI50 (T47D) | GI50 (UACC-62) | GI50 (UO-31)
OCCSCc1ccccc1 | > 100 µM (inactive) | > 100 µM (inactive) | > 100 µM (inactive) | > 100 µM (inactive) | > 100 µM (inactive) | > 100 µM (inactive) | > 100 µM (inactive) | > 100 µM (inactive) | > 100 µM (inactive) | > 100 µM (inactive) | > 100 µM (inactive) | > 100 µM (inactive) | > 100 µM (inactive) | > 100 µM (inactive) | > 100 µM (inactive) | > 100 µM (inactive) | > 100 µM (inactive) | > 100 µM (inactive) | > 100 µM (inactive) | > 100 µM (inactive)
Cc1cn([C@H]2C[C@@H](N3C(=O)c4ccccc4C3=O)[C@@H](CO[Si](C)(C)C(C)(C)C)O2)c(=O)[nH]c1=O | > 100 µM (inactive) | > 100 µM (inactive) | > 100 µM (inactive) | > 100 µM (inactive) | 20.7 µM (inactive) | 91.6 µM (inactive) | > 100 µM (inactive) | 70.3 µM (inactive) | 31.6 µM (inactive) | > 100 µM (inactive) | > 100 µM (inactive) | 30.6 µM (inactive) | 27.5 µM (inactive) | 46.8 µM (inactive) | > 100 µM (inactive) | > 100 µM (inactive) | 24 µM (inactive) | > 100 µM (inactive) | 23.8 µM (inactive) | 52.5 µM (inactive)
COCOC1/C=C/CCCCC(=O)C(C)C#CC1 (stereo not given) | 10.7 µM (inactive) | 6.97 µM (inactive) | 12.8 µM (inactive) | 7.89 µM (inactive) | 17.5 µM (inactive) | 7.4 µM (inactive) | 2.19 µM (inactive) | 4.73 µM (inactive) | 4.63 µM (inactive) | 7.13 µM (inactive) | 10.2 µM (inactive) | 15.1 µM (inactive) | 5.7 µM (inactive) | 5.81 µM (inactive) | 8.87 µM (inactive) | 6.27 µM (inactive) | 12.9 µM (inactive) | 2.76 µM (inactive) | 2.4 µM (inactive) | 5.7 µM (inactive)
N#Cc1c(-c2ccc(Cl)cc2)cc(-c2ccc(Nc3ccnc4cc(C(F)(F)F)ccc34)cc2)nc1N | 19.6 µM (inactive) | 63 µM (inactive) | 28.1 µM (inactive) | 64.3 µM (inactive) | 19.7 µM (inactive) | > 100 µM (inactive) | 3.72 µM (inactive) | 28.7 µM (inactive) | 57.5 µM (inactive) | 32.8 µM (inactive) | 17.9 µM (inactive) | 39.1 µM (inactive) | 18.5 µM (inactive) | 27.8 µM (inactive) | 25.3 µM (inactive) | 22 µM (inactive) | 23 µM (inactive) | 18.5 µM (inactive) | 22.3 µM (inactive) | 15.7 µM (inactive)
CCCCCCCCCCCCCCCCCCNc1ccn(C2OC(CO)C(OP(=O)(O)OCC(COP(=O)(O)OCC3OC(n4cc(F)c(NCCCCCCCCCCCCCCCCCC)nc4=O)CC3O)OC(=O)CCCCCCCCCCCCCCC)C2O)c(=O)n1 (stereo not given) | > 100 µM (inactive) | > 100 µM (inactive) | > 100 µM (inactive) | > 100 µM (inactive) | > 100 µM (inactive) | > 100 µM (inactive) | > 100 µM (inactive) | > 100 µM (inactive) | > 100 µM (inactive) | > 100 µM (inactive) | > 100 µM (inactive) | > 100 µM (inactive) | > 100 µM (inactive) | > 100 µM (inactive) | > 100 µM (inactive) | > 100 µM (inactive) | > 100 µM (inactive) | > 100 µM (inactive) | > 100 µM (inactive) | > 100 µM (inactive)
CSc1c(C)[n+]([O-])c2cc(Cl)c(Cl)cc2[n+]1[O-] | 21.6 µM (inactive) | 18.3 µM (inactive) | 16.9 µM (inactive) | 18.8 µM (inactive) | 33.3 µM (inactive) | 31.4 µM (inactive) | 17.9 µM (inactive) | 20.2 µM (inactive) | 16.2 µM (inactive) | 37.9 µM (inactive) | 16.4 µM (inactive) | 18.5 µM (inactive) | 44.8 µM (inactive) | 19.9 µM (inactive) | 17.7 µM (inactive) | 16.4 µM (inactive) | > 47.1 µM (inactive) | 20.8 µM (inactive) | 14.9 µM (inactive) | 16.3 µM (inactive)
CC(=O)C(=Cc1ccc(C=C(C(C)=O)C(C)=O)cc1)C(C)=O | 2.58 µM (inactive) | 2.05 µM (inactive) | 3.81 µM (inactive) | 4.81 µM (inactive) | 2.08 µM (inactive) | 0.12 µM (active) | 0.57 µM (active) | 1.97 µM (inactive) | 1.93 µM (inactive) | 2.59 µM (inactive) | 1.9 µM (inactive) | 1.41 µM (inactive) | 2.1 µM (inactive) | 2.39 µM (inactive) | 1.9 µM (inactive) | 1.63 µM (inactive) | 1.78 µM (inactive) | 3.05 µM (inactive) | 1.65 µM (inactive) | 1.6 µM (inactive)
C=C(C(=O)O[C@H]1C(=O)C2=C(C)CCC3C(=C)C(=O)O[C@@H]3C2[C@]1(C)O)C1CC[C@]2(C)CCCC(=C)[C@H]2C1 (stereo not given in full) | 10.7 µM (inactive) | 5.04 µM (inactive) | 4.72 µM (inactive) | 1.91 µM (inactive) | 8.32 µM (inactive) | 6.85 µM (inactive) | 3.18 µM (inactive) | 5.78 µM (inactive) | 7.35 µM (inactive) | 3.16 µM (inactive) | 5.36 µM (inactive) | 5.6 µM (inactive) | 4.1 µM (inactive) | 8.45 µM (inactive) | 12.2 µM (inactive) | 2.48 µM (inactive) | 0.327 µM (active) | 4.25 µM (inactive) | 1.9 µM (inactive) | 6.34 µM (inactive)
Cc1nc(N)nc(N)c1-c1ccc(Cl)c(Cl)c1 [METOPRINE] | 21.6 µM (inactive) | 21 µM (inactive) | 1.72 µM (inactive) | 2.91 µM (inactive) | 1.12 µM (inactive) | 3.05 µM (inactive) | 0.054 µM (active) | 0.466 µM (active) | 0.378 µM (active) | 0.0239 µM (active) | 37.9 µM (inactive) | 1 µM (active) | 1.21 µM (inactive) | 30.8 µM (inactive) | 0.409 µM (active) | 0.664 µM (active) | 11.5 µM (inactive) | 16.9 µM (inactive) | 0.355 µM (active) | 1.15 µM (inactive)

From ChEMBL document CHEMBL1201862, “PubChem BioAssay data set” (2004)
